Target: T1, ABCG2 (Homo sapiens, UniProt Q9UNQ0)
T1 sequence (Q9UNQ0 1-655): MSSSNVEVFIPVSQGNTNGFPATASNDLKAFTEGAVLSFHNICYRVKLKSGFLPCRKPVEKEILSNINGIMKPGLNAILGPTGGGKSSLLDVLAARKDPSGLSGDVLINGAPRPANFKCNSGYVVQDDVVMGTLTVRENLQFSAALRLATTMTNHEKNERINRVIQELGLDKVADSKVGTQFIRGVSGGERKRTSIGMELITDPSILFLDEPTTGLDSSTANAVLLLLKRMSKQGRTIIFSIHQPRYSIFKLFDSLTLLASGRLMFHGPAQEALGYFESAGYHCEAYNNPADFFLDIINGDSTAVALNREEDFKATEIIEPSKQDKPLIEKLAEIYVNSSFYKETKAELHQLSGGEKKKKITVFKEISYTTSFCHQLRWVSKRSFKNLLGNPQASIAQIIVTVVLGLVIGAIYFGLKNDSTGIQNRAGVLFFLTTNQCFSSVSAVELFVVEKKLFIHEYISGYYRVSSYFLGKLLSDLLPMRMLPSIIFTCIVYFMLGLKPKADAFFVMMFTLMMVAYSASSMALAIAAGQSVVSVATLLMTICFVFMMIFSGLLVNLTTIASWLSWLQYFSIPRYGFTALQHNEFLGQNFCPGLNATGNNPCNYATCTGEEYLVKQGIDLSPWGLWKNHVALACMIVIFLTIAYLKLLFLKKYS
Format: cell-based

CN(Cc1cnc2nc(N)nc(N)c2n1)c1ccc(C(=O)N[C@@H](CCC(=O)O)C(=O)O)cc1 [[^3H]-methotrexate]
ATP-dependent uptake into membrane vesicles (rapid filtration): inhibited the rates of both methotrexate and E217βG uptake in the membrane vesicles of ABCG2-482-R5
